Where a name gives a salt, the structure may show the parent alone.

Assay type in all cases: cell-based
Test [1] concerns the target T1, human serotonin transporter (Homo sapiens, UniProt P31645).
T1 construct: expressed in transfected cells
Kind of test: Inhibitory action on human serotonin transporter ([3H]-5-hydroxytryptamine uptake in CHO cells). As to conditions: CHO, compound 1 μM; relative to inhibitory activity of 10 μM Paroxetine as 100%; read-out: inhibitory rate (%). In a few lines: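 CHO-K1 cells stably expressing human SERT, plated overnight, took up [3H]-5-HT (diluted to 200 nM before a 1:10 addition) for 20 min in HEPES-buffered saline with glucose and 0.5% BSA; radioactivity counted by scintillation. Compounds at 10 μM or 1 μM, activity expressed relative to 10 μM paroxetine set as 100%.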

Test [2] has as its target T2, human norepinephrine transporter (Homo sapiens, UniProt P23975).
T2 construct: expressed in transfected cells
Nature of the test: Inhibitory action on human norepinephrine transporter ([3H]-norepinephrine uptake in CHO cells). The conditions noted are these: CHO, compound 1 μM; relative to inhibitory activity of 10 μM DMI as 100%; read-out: inhibitory rate (%). In a few lines: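 Stably transfected CHO-K1 cells plated overnight, then given test compound and [3H]-norepinephrine (20 nM final, from 200 nM) in HEPES-buffered saline with 0.5% BSA for 45 min. After PBS washes, retained radioactivity counted by scintillation. Inhibition at 10 μM or 1 μM compound expressed relative to 10 μM DMI as 100%.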

The target in test [3] is T3, human dopamine transporter (Homo sapiens, UniProt Q01959).
T3 construct: expressed in transfected cells
Nature of the test: Inhibitory action on human dopamine transporter ([3H]-dopamine uptake in CHO cells). As to conditions: CHO, compound 1 μM; relative to inhibitory activity of 100 μM Nomifensine as 100%; read-out: inhibitory rate (%). In a few lines: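 CHO-K1 cells stably expressing human dopamine transporter, exposed to compound at 10 μM or 1 μM in HEPES-buffered saline with 0.5% BSA. [3H]-dopamine uptake measured over 60 min by scintillation counting. Activity expressed relative to 100 μM nomifensine as 100%.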

T3 sequence (Q01959 whole entry): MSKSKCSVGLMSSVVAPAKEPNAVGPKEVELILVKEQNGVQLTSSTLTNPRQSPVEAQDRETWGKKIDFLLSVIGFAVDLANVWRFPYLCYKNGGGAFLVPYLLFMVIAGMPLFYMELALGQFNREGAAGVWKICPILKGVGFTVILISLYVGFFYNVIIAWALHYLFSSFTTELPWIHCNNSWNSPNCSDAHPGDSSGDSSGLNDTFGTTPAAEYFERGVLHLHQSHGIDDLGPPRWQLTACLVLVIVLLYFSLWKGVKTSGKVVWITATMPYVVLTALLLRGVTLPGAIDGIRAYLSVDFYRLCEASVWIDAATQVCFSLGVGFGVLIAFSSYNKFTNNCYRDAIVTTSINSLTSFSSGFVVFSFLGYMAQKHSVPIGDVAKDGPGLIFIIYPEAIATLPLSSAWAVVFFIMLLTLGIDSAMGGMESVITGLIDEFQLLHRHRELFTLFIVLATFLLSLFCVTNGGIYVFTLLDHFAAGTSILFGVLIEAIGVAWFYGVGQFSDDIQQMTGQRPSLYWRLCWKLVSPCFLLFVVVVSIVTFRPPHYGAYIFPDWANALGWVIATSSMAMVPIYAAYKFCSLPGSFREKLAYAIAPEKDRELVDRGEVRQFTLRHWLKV
T1 sequence (P31645 whole entry): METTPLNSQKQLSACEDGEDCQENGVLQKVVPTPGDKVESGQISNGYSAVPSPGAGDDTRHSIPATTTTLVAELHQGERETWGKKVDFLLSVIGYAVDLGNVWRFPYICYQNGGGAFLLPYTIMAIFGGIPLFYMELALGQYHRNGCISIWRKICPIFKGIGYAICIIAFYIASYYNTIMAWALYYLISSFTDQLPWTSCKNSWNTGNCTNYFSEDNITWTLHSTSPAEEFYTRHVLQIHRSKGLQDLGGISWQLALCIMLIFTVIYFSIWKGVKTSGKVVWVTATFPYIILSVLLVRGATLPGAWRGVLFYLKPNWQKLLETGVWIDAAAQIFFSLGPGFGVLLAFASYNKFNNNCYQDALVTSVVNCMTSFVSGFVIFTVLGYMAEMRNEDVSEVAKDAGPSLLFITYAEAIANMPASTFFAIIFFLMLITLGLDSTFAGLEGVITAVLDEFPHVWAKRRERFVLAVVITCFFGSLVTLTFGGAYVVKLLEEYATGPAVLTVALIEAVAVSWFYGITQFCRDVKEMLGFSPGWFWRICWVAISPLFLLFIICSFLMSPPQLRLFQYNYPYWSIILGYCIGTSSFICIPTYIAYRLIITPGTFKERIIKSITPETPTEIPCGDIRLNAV
T2 sequence (P23975 whole entry): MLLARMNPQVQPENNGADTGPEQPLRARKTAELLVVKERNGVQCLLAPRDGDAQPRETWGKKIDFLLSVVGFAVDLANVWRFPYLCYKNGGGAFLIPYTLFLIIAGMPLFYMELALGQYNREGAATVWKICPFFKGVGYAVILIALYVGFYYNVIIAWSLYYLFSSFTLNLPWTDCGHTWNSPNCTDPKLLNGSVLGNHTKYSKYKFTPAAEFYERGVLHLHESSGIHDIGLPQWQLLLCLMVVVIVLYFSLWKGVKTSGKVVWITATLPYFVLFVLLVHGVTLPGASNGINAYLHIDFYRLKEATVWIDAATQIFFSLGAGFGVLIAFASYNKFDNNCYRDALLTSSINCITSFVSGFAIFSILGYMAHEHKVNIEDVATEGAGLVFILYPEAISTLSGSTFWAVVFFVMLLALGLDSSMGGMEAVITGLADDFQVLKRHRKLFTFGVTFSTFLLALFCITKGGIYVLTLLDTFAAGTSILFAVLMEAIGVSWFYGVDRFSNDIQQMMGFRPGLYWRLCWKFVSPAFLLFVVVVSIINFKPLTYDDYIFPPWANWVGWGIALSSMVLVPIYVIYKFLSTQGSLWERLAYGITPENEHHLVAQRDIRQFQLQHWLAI

As for `O=c1[nH]c(-c2cccnc2OC2CNCCOC2c2ccc(Cl)c(Cl)c2)no1` (stereo not drawn) [Example 525, 3-(2-{[(6R*,7S*)-7-(3,4-dichlorophenyl)-1,4-oxazepan-yl]oxy}pyridin-3-yl)-1,2,4-oxadiazol-5(4H)-one monohydrochloride (retention time long)], the inhibition at 1 µM in test [1] was determined as 97%; in test [2], 104%; in test [3], 98%.

With `O=C1NCCCN1C[C@H]1OCCNC[C@H]1c1ccc(Cl)c(Cl)c1` [Example 545, 1-{[(6R,7S)-6-(3,4-dichlorophenyl)-1,4-oxazepan-7-yl]methyl}tetrahydropyrimidin-2(1H)-one monohydrochloride], the inhibition at 1 µM in test [1] worked out at 94%; in test [2], 108%; in test [3], 81%.

Take `O=c1[nH]nc(-c2cccn(C[C@@H]3CNCCO[C@H]3c3ccc(Cl)c(F)c3)c2=O)o1` [Example 550, 1-{[(6S,7R)-7-(4-chloro-3-fluorophenyl)-1,4-oxazepan-6-yl]methyl}-3-(5-oxo-4,5-dihydro-1,3,4-oxadiazol-2-yl)pyridin-2(1H)-one monohydrochloride]: the results for the inhibition at 1 µM in test [1], in test [2] and in test [3] were 97%, 109% and 46%, respectively.

In the case of `O[C@@H]1CNCCO[C@H]1c1ccc(Cl)c(F)c1` [Example 552, (6R,7S)-7-(4-chloro-3-fluorophenyl)-1,4-oxazepan-6-ol monohydrochloride], the inhibition at 1 µM in test [1] turned out to be 14%; in test [2], 107%; in test [3] it was 1%.

As for `O=c1[nH]nc(-c2cccnc2O[C@@H]2CNCCO[C@H]2c2ccc(Cl)c(F)c2)[nH]1` [Example 558, 5-(2-{[(6R,7S)-7-(4-chloro-3-fluorophenyl)-1,4-oxazepan-6-yl]oxy}pyridin-3-yl)-2,4-dihydro-3H-1,2,4-triazol-3-one monohydrochloride], the figures for the inhibition at 1 µM in test [1], in test [2] and in test [3] were 81%, 106% and 100%, respectively.

Take `Cc1nnc(-c2cccnc2O[C@@H]2CNCCO[C@H]2c2ccc(Cl)c(F)c2)[nH]1` [Example 568, (6R,7S)-7-(4-chloro-3-fluorophenyl)-6-{[3-(5-methyl-4H-1,2,4-triazol-3-yl)pyridin-2-yl]oxy}-1,4-oxazepane monohydrochloride]: the inhibition at 1 µM in test [1] turned out to be 94%; in test [2], 103%; in test [3], 100%.

On to `CS(=O)(=O)CC1(O)CNCCOC1c1ccc(Cl)c(F)c1` (stereo not drawn) [Example 572, 7-(4-chloro-3-fluoro-phenyl)-6-[(methyl-sulfonyl)-methyl]-1,4-oxazepan-ol], for which the inhibition at 1 µM in test [1] was determined as 95%; in test [2] it was 103%; in test [3] it was 62%.

As to `OC[C@H](O)[C@H]1OCCNC[C@H]1c1ccc(Cl)c(Cl)c1` [Example 578, (1S)-1-[(6R, 7S)-6-(3,4-dichloro-phenyl)-1,4-oxazepan-7-yl]ethane-1,2-diol], the inhibition at 1 µM worked out at 28% in test [1], 99% in test [2] and 68% in test [3].

`OC[C@@H](O)[C@H]1OCCNC[C@H]1c1ccc(Cl)c(Cl)c1` [Example 579, (1R)-1-[(6R, 7S)-6-(3,4-dichloro-phenyl)-1,4-oxazepan-7-yl]ethane-1,2-diol]: the inhibition at 1 µM worked out at 61% in test [1], 96% in test [2] and 49% in test [3].

As to `O=C(O)c1ccnn(C[C@@H]2CNCCO[C@H]2c2ccc(Cl)c(F)c2)c1=O` [Example 597, 2-{[(6S, 7R)-7-(4-chloro-3-fluoro-phenyl)-1,4-oxazepan-6-yl]methyl}-3-oxo-2,3-dihydro-pyridazine-4-carboxylic acid], the inhibition at 1 µM in test [1] is 78%; in test [2] it was 104%; in test [3] it was 38%.

Values taken from patent publication US20130267494A1, “1,4-OXAZEPANE DERIVATIVES” (priority 2010, published 2013).
